Our source for the IC50, Ki and type of inhibition values is PMC8881002 (Journal of molecular structure, 2021).

The target in one experiment is T1, electric eel AChE (Electrophorus electricus, UniProt O42275). Briefly: biochemical.
T1 sequence (O42275 24-633): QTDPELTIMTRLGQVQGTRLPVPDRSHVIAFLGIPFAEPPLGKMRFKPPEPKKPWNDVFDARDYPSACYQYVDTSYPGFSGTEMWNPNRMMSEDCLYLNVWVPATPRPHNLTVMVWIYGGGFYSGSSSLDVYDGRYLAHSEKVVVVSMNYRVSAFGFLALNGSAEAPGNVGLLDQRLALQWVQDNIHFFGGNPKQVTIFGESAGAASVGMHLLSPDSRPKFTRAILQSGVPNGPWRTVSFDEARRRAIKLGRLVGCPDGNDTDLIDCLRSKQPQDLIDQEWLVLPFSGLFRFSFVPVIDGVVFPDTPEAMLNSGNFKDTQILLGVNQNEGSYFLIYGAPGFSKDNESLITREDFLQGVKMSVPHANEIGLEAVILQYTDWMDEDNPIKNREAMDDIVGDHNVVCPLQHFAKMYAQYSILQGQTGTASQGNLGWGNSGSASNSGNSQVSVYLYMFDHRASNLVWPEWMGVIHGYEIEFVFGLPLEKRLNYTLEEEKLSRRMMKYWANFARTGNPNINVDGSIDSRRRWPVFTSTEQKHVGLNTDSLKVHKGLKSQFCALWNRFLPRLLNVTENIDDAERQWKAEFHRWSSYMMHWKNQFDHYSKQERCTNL
Conditions: not given
For the molecule `COc1cc2c(cc1OC)C(=O)C(CC1CCN(Cc3ccnc(Br)c3)CC1)C2` (centres unmarked) [Analog 6, 2-((1-((2-bromopyridin-4-yl)methyl)piperidin-4-yl)methyl)-5,6-dimethoxy-2,3-dihydro-1H-inden-1-one], the half-maximal inhibitory concentration (IC50) (as a rule, the concentration needed to halve the response being measured) was 1800 nM.

The molecule `COc1cc2c(cc1OC)C(=O)C(CC1CCN(Cc3cccnc3Cl)CC1)C2` (centres unmarked) [Analog 10, 2-((1-((2-chloropyridin-3-yl)methyl)piperidin-4-yl)methyl)-5,6-dimethoxy-2,3-dihydro-1H-inden-1-one] came in with an IC50 of 414 nM.

As to `COc1cc2c(cc1OC)C(=O)C(CC1CCN(Cc3cccnc3F)CC1)C2` (centres unmarked) [Analog 9, 2-((1-((2-fluoropyridin-3-yl)methyl)piperidin-4-yl)methyl)-5,6-dimethoxy-2,3-dihydro-1H-inden-1-one], the IC50 turned out to be 718 nM.

In turn, `COc1cc2c(cc1OC)C(=O)C(CC1CCN(Cc3ccccn3)CC1)C2` (centres unmarked) [Analog 1, 5,6-dimethoxy-2-((1-(pyridin-2-ylmethyl)piperidin-4-yl)methyl)-2,3-dihydro-1H-inden-1-one] showed an IC50 of 793 nM.

In turn, `COc1cc2c(cc1OC)C(=O)C(CC1CCN(Cc3cccnc3Br)CC1)C2` (centres unmarked) [Analog 11, 2-((1-((2-bromopyridin-3-yl)methyl)piperidin-4-yl)methyl)-5,6-dimethoxy-2,3-dihydro-1H-inden-1-one] gave a half-inhibitory concentration (IC50) of 1120 nM.

On to `COc1cc2c(cc1OC)C(=O)C(CC1CCN(Cc3ccnc(Cl)c3)CC1)C2` (centres unmarked) [Analog 5, 2-((1-((2-chloropyridin-4-yl)methyl)piperidin-4-yl)methyl)-5,6-dimethoxy-2,3-dihydro-1H-inden-1-one], for which the IC50 was 2060 nM.

For the molecule `COc1cc2c(cc1OC)C(=O)C(CC1CCN(Cc3ccncc3Cl)CC1)C2` (centres unmarked) [Analog 7, 2-((1-((3-chloropyridin-4-yl)methyl)piperidin-4-yl)methyl)-5,6-dimethoxy-2,3-dihydro-1H-inden-1-one], the IC50 is 364 nM.

`COc1cc2c(cc1OC)C(=O)C(CC1CCN(Cc3c(Cl)cncc3Cl)CC1)C2` (centres unmarked) [Analog 8, 2-((1-((3,5-dichloropyridin-4-yl)methyl)piperidin-4-yl)methyl)-5,6-dimethoxy-2,3-dihydro-1H-inden-1-one] displayed a concentration for half-maximal inhibition (IC50) of 4320 nM.

Molecule `COc1cc2c(cc1OC)C(=O)C(CC1CCN(Cc3ccncc3)CC1)C2` (centres unmarked) [Analog 3, 5,6-dimethoxy-2-((1-(pyridin-4-ylmethyl)piperidin-4-yl)methyl)-2,3-dihydro-1H-inden-1-one] had an IC50 of 334 nM.

The molecule `COc1cc2c(cc1OC)C(=O)C(CC1CCN(Cc3ccnc4ccccc34)CC1)C2` (centres unmarked) [Analog 4, 5,6-dimethoxy-2-((1-(quinolin-4-ylmethyl)piperidin-4-yl)methyl)-2,3-dihydro-1H-inden-1-one] registered a 50% inhibitory concentration (IC50) of 356 nM.

`COc1cc2c(cc1OC)C(=O)C(CC1CCN(Cc3ccc(C)nc3)CC1)C2` (centres unmarked) [Analog 12, 5,6-dimethoxy-2-((1-((6-methylpyridin-3-yl)methyl)piperidin-4-yl)methyl)-2,3-dihydro-1H-inden-1-one] displayed an IC50 of 928 nM.

Take `COc1cc2c(cc1OC)C(=O)C(CC1CCN(Cc3cccnc3)CC1)C2` (centres unmarked) [Analog 2, 5,6-dimethoxy-2-((1-(pyridin-3-ylmethyl)piperidin-4-yl)methyl)-2,3-dihydro-1H-inden-1-one]: the IC50 came to 51 nM.

A further experiment deals with T1, electric eel AChE. In words: Kinetic analysis of AChE inhibition. The experiment is classed as biochemical.
Conditions: not given
With `COc1cc2c(cc1OC)C(=O)C(CC1CCN(Cc3cccnc3)CC1)C2` (centres unmarked) [Analog 2, 5,6-dimethoxy-2-((1-(pyridin-3-ylmethyl)piperidin-4-yl)methyl)-2,3-dihydro-1H-inden-1-one], the inhibition constant (Ki) (usually a dissociation constant, usually derived from enzyme kinetics or from competition with a known ligand) amounted to 62 nM.

Staying with this experiment, now noted: Lineweaver-Burke double reciprocal plot, electric eel AChE.
With `COc1cc2c(cc1OC)C(=O)C(CC1CCN(Cc3cccnc3)CC1)C2` (centres unmarked) [Analog 2, 5,6-dimethoxy-2-((1-(pyridin-3-ylmethyl)piperidin-4-yl)methyl)-2,3-dihydro-1H-inden-1-one], the type of inhibition entry is “mixed-type inhibition”.
